Measurements published in patent US9896418B2, “Aryl ethers and uses thereof” (Peloton Therapeutics, Inc., priority 2013, dated 2018).

Tested on: HIF-2α HIS TAG-PASB Domain
Assay: HIF-2α Scintillation Proximity Assay (SPA)
Type: binding
Procedure: The percent inhibition was determined and IC50 values were calculated using the Dotmatics system based on the following equation: % inhibition=[(high control−sample)/(high control−low control)]×100.

SMILES	IC50 [nM]
C/C=C/c1c(S(=O)(=O)C(F)F)ccc(Oc2cc(F)cc(C#N)c2)c1C#N [Compound 178, (E)-6-(3-Cyano-5-fluorophenoxy)-3-((difluoromethyl)sulfonyl)-2-(prop-1-en-1-yl)benzonitrile]	920
O=S(=O)(c1ccc(Oc2cc(F)cc(Cl)c2)c(Br)c1Cl)C(F)(F)F [Compound 179, 2-Bromo-3-chloro-1-(3-chloro-5-fluorophenoxy)-4-((trifluoromethyl)sulfonyl)benzene]	23
CS(=N)(=O)c1ccc(Oc2cc(F)cc(Cl)c2)c(C#N)c1Cl (stereo not shown) [Compound 180, 2-Chloro-6-(3-chloro-5-fluorophenoxy)-3-(S-methylsulfonimidoyl)benzonitrile]	9400
O=C1c2c(S(=O)(=O)C(F)F)ccc(Oc3cncc(Cl)c3)c2CC1(F)F [Compound 182, 4-((5-Chloropyridin-3-yl)oxy)-7-((difluoromethyl)sulfonyl)-2,2-difluoro-2,3-dihydro-1H-inden-1-one]	380
O=S(=O)(c1ccc(Oc2cncc(Cl)c2)c2c1[C@H](O)CC2)C(F)(F)F [Compound 184, (R)-4-((5-Chloropyridin-3-yl)oxy)-7-((trifluoromethyl)sulfonyl)-2,3-dihydro-1H-inden-1-ol]	720
CS(=O)(=NC#N)c1ccc(Oc2cc(F)cc(F)c2)c2c1C(O)CC2 (stereo not shown) [Compound 189, N-((7-(3,5-Difluorophenoxy)-3-hydroxy-2,3-dihydro-1H-inden-4-yl)(methyl)(oxo)-λ^6-sulfanylidene)cyanamide]	3200
CS(=N)(=O)c1ccc(Oc2cc(F)cc(F)c2)c2c1C(O)CC2 (stereo not shown) [Compound 190, (7-(3,5-Difluorophenoxy)-3-hydroxy-2,3-dihydro-1H-inden-4-yl)(imino)(methyl)-λ^6-sulfanone]	580
O=C1c2c(S(=O)(=O)C(F)F)ccc(Oc3ccc(F)c(Br)c3)c2CC1(F)F [Compound 193, 4-(3-Bromo-4-fluorophenoxy)-7-((difluoromethyl)sulfonyl)-2,2-difluoro-2,3-dihydro-1H-inden-1-one]	900
O=C1c2c(S(=O)(=O)C(F)F)ccc(Oc3ccc(F)c(F)c3)c2CC1(F)F [Compound 195, 7-((Difluoromethyl)sulfonyl)-4-(3,4-difluorophenoxy)-2,2-difluoro-2,3-dihydro-1H-inden-1-one]	110
Cc1cc(Oc2ccc(S(=O)(=O)C(F)F)c3c2CC(F)(F)C3=O)ccc1F [Compound 197, 7-((Difluoromethyl)sulfonyl)-2,2-difluoro-4-(4-fluoro-3-methylphenoxy)-2,3-dihydro-1H-inden-1-one]	770
N#Cc1cc(F)cc(Oc2ccc(S(=O)(=O)C(F)F)c3c2CCC3F)c1 (stereo not shown) [Compound 202, 3-((7-((Difluoromethyl)sulfonyl)-1-fluoro-2,3-dihydro-1H-inden-4-yl)oxy)-5-fluorobenzonitrile]	680
O=[N+]([O-])c1c(Oc2cc(F)cc(Cl)c2)ccc(C(F)(F)F)c1Cl [Compound 203, 2-Chloro-4-(3-chloro-5-fluorophenoxy)-3-nitro-1-(trifluoromethyl)benzene]	77
O=[N+]([O-])c1c(Oc2cccc(Cl)c2)ccc(C(F)(F)F)c1Cl [Compound 204, 2-Chloro-4-(3-chlorophenoxy)-3-nitro-1-(trifluoromethyl)benzene 1,3-dichloro-2-nitro-4-(trifluoromethyl)benzene]	210
CCS(=O)(=O)c1ccc(Oc2cc(F)cc(C#N)c2)c2c1C(O)CC2 (stereo not shown) [Compound 205, 3-((7-(Ethylsulfonyl)-1-hydroxy-2,3-dihydro-1H-inden-4-yl)oxy)-5-fluorobenzonitrile]	2400
N#Cc1cc(F)cc(Oc2ccc(S(=O)(=O)C(F)F)c3c2CC(F)(F)[C@H]3N)c1 [Compound 207, (S)-3-((1-Amino-7-((difluoromethyl)sulfonyl)-2,2-difluoro-2,3-dihydro-1H-inden-4-yl)oxy)-5-fluorobenzonitrile]	500
N#Cc1cc(F)cc(Oc2ccc(S(=O)(=O)C3CCC3)c3c2CCC3O)c1 (stereo not shown) [Compound 208, 3-((7-(Cyclobutylsulfonyl)-1-hydroxy-2,3-dihydro-1H-inden-4-yl)oxy)-5-fluorobenzonitrile]	> 100000
CO[C@H]1c2c(S(C)(=O)=O)ccc(Oc3cc(F)cc(C#N)c3)c2CC1(F)F [Compound 210, (S)-3-((2,2-Difluoro-1-methoxy-7-(methylsulfonyl)-2,3-dihydro-1H-inden-4-yl)oxy)-5-fluorobenzonitrile]	17000
CNS(=O)(=O)c1ccc(Oc2cc(F)cc(F)c2)c2c1C(O)CC2 (stereo not shown) [Compound 211, 7-(3,5-Difluorophenoxy)-3-hydroxy-N-methyl-2,3-dihydro-1H-indene-4-sulfonamide]	2100
O=S(=O)(c1ccc(Oc2ccc(F)cc2)c2c1C(O)CC2)C(F)(F)F (stereo not shown) [Compound 212, 4-(4-Fluorophenoxy)-7-((trifluoromethyl)sulfonyl)-2,3-dihydro-1H-inden-1-ol]	670
Cc1cc(Oc2cc(F)cc(C#N)c2)c2c(c1S(C)(=O)=O)C(O)C(F)(F)C2 (stereo not shown) [Compound 213, 3-((2,2-Difluoro-1-hydroxy-6-methyl-7-(methylsulfonyl)-2,3-dihydro-1H-inden-4-yl)oxy)-5-fluorobenzonitrile]	800
O=S(=O)(c1ccc(Oc2ccc(F)c(F)c2)c2c1C(O)CC2)C(F)(F)F (stereo not shown) [Compound 214, 4-(3,4-Difluorophenoxy)-7-((trifluoromethyl)sulfonyl)-2,3-dihydro-1H-inden-1-ol]	230
N#Cc1cc(Oc2ccc(S(=O)(=O)C(F)(F)F)c3c2CCC3O)ccc1F (stereo not shown) [Compound 216, 2-Fluoro-5-((1-hydroxy-7-((trifluoromethyl)sulfonyl)-2,3-dihydro-1H-inden-4-yl)oxy)benzonitrile]	2700
O=S(=O)(c1ccc(Oc2ccc(F)c(Cl)c2)c2c1C(O)CC2)C(F)(F)F (stereo not shown) [Compound 218, 4-(3-Chloro-4-fluorophenoxy)-7-((trifluoromethyl)sulfonyl)-2,3-dihydro-1H-inden-1-ol]	810
CS(=O)(=O)c1cc(F)c(Oc2cc(F)cc(C#N)c2)c2c1C(O)C(F)(F)C2 (stereo not shown) [Compound 219, 3-Fluoro-5-((2,2,5-trifluoro-1-hydroxy-7-(methylsulfonyl)-2,3-dihydro-1H-inden-4-yl)oxy)benzonitrile]	17000
N#Cc1cncc(Oc2ccc(S(=O)(=O)C(F)(F)F)c3c2CCC3O)c1 (stereo not shown) [Compound 220, 5-((1-Hydroxy-7-((trifluoromethyl)sulfonyl)-2,3-dihydro-1H-inden-4-yl)oxy)nicotinonitrile]	700
O=S(=O)(c1ccc(Oc2ccc3[nH]ncc3c2)c2c1C(O)C(F)(F)C2)C(F)(F)F (stereo not shown) [Compound 238, 4-((1H-Indazol-5-yl)oxy)-2,2-difluoro-7-((trifluoromethyl)sulfonyl)-2,3-dihydro-1H-inden-1-ol]	4900
O=S(=O)(c1ccc(Oc2cccc3[nH]ncc23)c2c1C(O)C(F)(F)C2)C(F)(F)F (stereo not shown) [Compound 243]	250
O=S(=O)(c1ccc(Oc2c(F)ccc3[nH]ncc23)c2c1C(O)C(F)(F)C2)C(F)(F)F (stereo not shown) [Compound 244, 2,2-Difluoro-4-((5-fluoro-1H-indazol-4-yl)oxy)-7-((trifluoromethyl)sulfonyl)-2,3-dihydro-1H-inden-1-ol]	1000
